Measured values taken from PMC6787163, “Systematic Dual Targeting of Dendritic Cell C-Type Lectin Receptor DC-SIGN and TLR7 Using a Trifunctional Mannosylated Antigen” (Frontiers in Chemistry, 2019).
Where “and” joins values, the source holds several entries; their conditions need not be identical. Equal entries are not always repeated.

Key:
DC-SIGN S-ECD = target: T1, DC-SIGN S-ECD (Homo sapiens, UniProt Q9NNX6); assay: SPR direct interaction assay on oriented DC-SIGN S-ECD surface; format: binding; settings: for Kd: SPR direct interaction, oriented tetrameric DC-SIGN ECD surface, apparent Kd, read-out: Kdapp
T1 construct: The ECD of DC-SIGN (residues 66–404) was overexpressed and purified as previously described; made in house
T1 sequence (Q9NNX6 66-404): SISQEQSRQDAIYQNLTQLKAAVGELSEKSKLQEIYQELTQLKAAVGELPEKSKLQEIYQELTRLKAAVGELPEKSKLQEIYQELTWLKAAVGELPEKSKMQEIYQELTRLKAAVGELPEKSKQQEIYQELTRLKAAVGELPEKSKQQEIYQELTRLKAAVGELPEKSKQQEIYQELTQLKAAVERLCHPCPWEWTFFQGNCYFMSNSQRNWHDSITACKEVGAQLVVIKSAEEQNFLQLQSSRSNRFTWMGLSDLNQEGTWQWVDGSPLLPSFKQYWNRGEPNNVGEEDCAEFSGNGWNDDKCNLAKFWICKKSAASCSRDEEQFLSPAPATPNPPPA
Protocol: The affinity of the clusters for the extracellular domain (ECD) of the DC-SIGN receptor (DC-SIGN ECD) was estimated via surface plasmon resonance (SPR) assays (Tabarani et al., [2009]). The apparent Kd was calculated in direct interaction mode using a surface functionalized in an oriented manner with DC-SIGN ECD. In this assay, tetrameric DC-SIGN ECD is attached to the surface of the sensor chip via the N-terminus of its neck oligomerization domain, thus presenting its four carbohydrate recognition domains toward the solvent, realistically mimicking the presentation of the receptor on cell surface (Porkolab et al., [2019]). For some of the low affinity ligands, in the mM range, it was not possible to determine their affinity with this assay, and therefore a competition experiment was performed providing IC50 values (Timpano et al., [2008]) (Figure 3A). […] When comparing equivalent clusters, the α1,2-di-mannoside (B series) bound with the highest affinity (Figure 3A). […] A potential explanation for this effect could be that the spacing of clusters is more important for the larger tri-mannosides.
The direct interaction experiments were executed on a T200 Biacore with a CM3 series S sensor chip. Contrary to the competition assay described above, in this test, DC-SIGN ECD used harbors a StreptagII in its N-terminus (DC-SIGN S-ECD) to allow its capture and functionalization onto the surface in an oriented manner. Flow cells were functionalized as previously described (Porkolab et al., [2019]). Briefly, after EDC/NHS activation, flow cells were functionalized with streptactin protein in a first step. Flow cell 1 was used as control, while other flow cells were, in a second round of activation, functionalized with 100 μg/mL of a DC-SIGN S-ECD up to a final density ranging between 2,500 and 3,000 RU, via tag specific capture and linkage by amine coupling chemistry simultaneously. The compounds were injected in running buffer of 25 mM Tris pH 8, 150 mM NaCl, 4 mM CaCl2, 0.05% Tween 20 onto the surface at increasing concentrations with a flow rate of 30 μL/min. The ligand titration led to the determination of an apparent Kd value. The data was analyzed in BIAcore BIAevaluation software for direct interaction 1:1 calculation assuming that the Kd will reflect the affinity of the ligands (glycoclusters) for the DC-SIGN oriented surface used as a whole.

moDCs = assay: Internalization of biotinylated hexavalent clusters by moDCs (flow cytometry); format: cell-based, human
Protocol: For the internalization, the moDCs were incubated with clusters b6, c6, d6, and e6 for 1 h at 4°C, where after unbound ligands were washed away with ice-cold medium. Warm medium was added to the moDCs, and samples were taken at the indicated time points and put on ice. Upon staining the moDCs with fluorophore-conjugated streptavidin, we could measure the signal loss of the membrane via flow cytometry. To exclude ligand-receptor dissociation before internalization, the moDCs were fixed under gentle conditions, hereby inhibiting receptor-mediated endocytosis. On fixed moDCs the clusters remained at the surface, as no signal loss could be detected (Supplementary Figure 1D). […] The di-mannoside clusters (b6, c6, and d6) were internalized relatively fast, with a 50% uptake within 5 min (Figure 5B). The tri-mannoside cluster e6 however remained longer at the membrane surface and only a 25% uptake was seen after 30 min. Similar results were seen using a pH-sensitive fluorophore. In acidic environments, such as the endosomes and lysosomes, the fluorescence of this dye increases. Pre-complexed clusters mirrored the accelerated uptake of the di-mannoside clusters over the e6 cluster (Supplementary Figure 1E). Although the DC-SIGN mediated uptake mechanism is known (Cambi et al., [2009]), the initiation trigger for endocytosis upon DC-SIGN-ligand binding remains unclear. Recognition of the di-mannoside clusters could induce signaling leading to accelerated uptake, whereas the tri-mannoside cluster could trigger a different signaling pathway. Nonetheless, the clusters harboring the smaller mannosides are preferred. Although the binding affinity of the clusters ranged from 0.9 to 6.6 μM, the di-mannosides induce more rapid DC-SIGN internalization over the tri-mannosides, and can thus increase intracellular peptide concentrations more efficiently for further antigen processing and presentation.
Immature day 5 moDCs were harvested and washed with cold HBSS (Thermo Fischer), after which half of the moDCs were gently fixed for 20 min at RT with 1% PFA in PBS. Afterwards, 20 μM of the different biotinylated mannose-clusters in cold HBSS were added. The moDCs were incubated for 1 h on ice, and washed in cold HBSS. Subsequently, warm HBSS was added to the cells, and cells were incubated at 37°C in a shaking heating block. At the indicated time points, a sample of the cells was taken and put on ice. After the last time point, the cells were stained with Streptavidin-Alexa647 (Thermo Fisher), measured using flow cytometry (CyAn™ ADP with Summit™ Software), and further analyzed using FlowJo v10. The same procedure was used for internalization with pHrodo^TM Red Avidin (Thermo Fischer). The different biotinylated mannose-clusters were however incubated with pHrodo-Avidin (ratio 2:1) for 15 min at 37°C, prior to moDC exposure. The fluorescence upon internalization was measured using flow cytometry (BD LSRFortessa™ X-20 with FACSDiva Software), and further analyzed using FlowJo v10.

Row | Structure (SMILES) | Kd (DC-SIGN S-ECD) | further results
1 | CC(=O)N[C@@H](CCCCn1cc(CO[C@H]2O[C@H](CO)[C@@H](O)[C@H](O)[C@@H]2O[C@H]2O[C@H](CO)[C@@H](O)[C@H](O)[C@@H]2O)nn1)C(=O)NCC(=O)N[C@@H](CCCCn1cc(CO[C@H]2O[C@H](CO)[C@@H](O)[C@H](O)[C@@H]2O[C@H]2O[C@H](CO)[C@@H](O)[C@H](O)[C@@H]2O)nn1)C(=O)NCC(=O)N[C@@H](CCCCn1cc(CO[C@H]2O[C@H](CO)[C@@H](O)[C@H](O)[C@@H]2O[C@H]2O[C@H](CO)[C@@H](O)[C@H](O)[C@@H]2O)nn1)C(=O)NCC(=O)N[C@@H](CCCCN)C(N)=O [B3] | 19500 ± 500 nM | 
2 | CC[C@H](NC(=O)[C@H](CC(=O)O)NC(=O)[C@H](CC(C)C)NC(=O)[C@H](CCCNC(=N)N)NC(=O)[C@H](CCC(N)=O)NC(=O)[C@H](C)NC(=O)[C@H](CCC(=O)O)NC(=O)[C@@H](NC(=O)[C@H](Cc1c[nH]c2ccccc12)NC(=O)[C@H](CCC(=O)O)NC(=O)[C@@H]1CCCN1C(=O)[C@H](Cc1ccc(O)cc1)NC(=O)[C@H](CC(C)C)NC(=O)[C@H](CCC(N)=O)NC(=O)[C@H](CCCNC(=N)N)NC(=O)[C@H](CC(N)=O)NC(=O)[C@H](C)NC(=O)[C@@H](NC(=O)[C@@H](NC(=O)[C@@H]1CCCN1C(=O)CNC(=O)[C@@H]1CCCN1C(=O)[C@H](CCC(=O)O)NC(=O)[C@H](CC(C)C)NC(=O)[C@H](Cc1ccc(O)cc1)NC(=O)[C@@H](NC(=O)[C@H](Cc1c[nH]cn1)NC(=O)[C@@H](NC(=O)[C@@H](NC(=O)[C@H](CCCCn1cc(CCC(=O)NCCCC[C@H](NC(=O)CNC(=O)[C@H](CCCCn2cc(CO[C@H]3O[C@H](CO)[C@@H](O)[C@H](O)[C@@H]3O[C@H]3O[C@H](CO)[C@@H](O)[C@H](O)[C@@H]3O)nn2)NC(=O)[C@H](CCCCn2cc(CO[C@H]3O[C@H](CO)[C@@H](O)[C@H](O)[C@@H]3O[C@H]3O[C@H](CO)[C@@H](O)[C@H](O)[C@@H]3O)nn2)NC(=O)[C@H](CCCCn2cc(CO[C@H]3O[C@H](CO)[C@@H](O)[C@H](O)[C@@H]3O[C@H]3O[C@H](CO)[C@@H](O)[C@H](O)[C@@H]3O)nn2)NC(=O)[C@H](CCCCn2cc(CO[C@H]3O[C@H](CO)[C@@H](O)[C@H](O)[C@@H]3O[C@H]3O[C@H](CO)[C@@H](O)[C@H](O)[C@@H]3O)nn2)NC(=O)[C@H](CCCCn2cc(CO[C@H]3O[C@H](CO)[C@@H](O)[C@H](O)[C@@H]3O[C@H]3O[C@H](CO)[C@@H](O)[C@H](O)[C@@H]3O)nn2)NC(=O)[C@H](CCCCn2cc(CO[C@H]3O[C@H](CO)[C@@H](O)[C@H](O)[C@@H]3O[C@H]3O[C@H](CO)[C@@H](O)[C@H](O)[C@@H]3O)nn2)NC(C)=O)C(N)=O)nn1)NC(C)=O)C(C)C)[C@@H](C)O)[C@@H](C)O)C(C)C)[C@@H](C)O)[C@@H](C)O)C(=O)N[C@@H](Cc1c[nH]c2ccccc12)C(=O)N[C@@H](CCCNC(=N)N)C(=O)NCC(=O)N[C@@H](CCCCN)C(N)=O [B6-gp100] |  | decrease of DC-SIGN affinity on conjugation to gp100 or gp100-TLR7L (factor) (DC-SIGN S-ECD; Kd-app of conjugate vs unconjugated cluster): about 10
3 | CC(=O)N[C@@H](CCCCn1cc(CO[C@H]2O[C@H](CO)[C@@H](O)[C@H](O)[C@@H]2O[C@H]2O[C@H](CO)[C@@H](O)[C@H](O)[C@@H]2O)nn1)C(=O)N[C@@H](CCCCn1cc(CO[C@H]2O[C@H](CO)[C@@H](O)[C@H](O)[C@@H]2O[C@H]2O[C@H](CO)[C@@H](O)[C@H](O)[C@@H]2O)nn1)C(=O)N[C@@H](CCCCn1cc(CO[C@H]2O[C@H](CO)[C@@H](O)[C@H](O)[C@@H]2O[C@H]2O[C@H](CO)[C@@H](O)[C@H](O)[C@@H]2O)nn1)C(=O)N[C@@H](CCCCn1cc(CO[C@H]2O[C@H](CO)[C@@H](O)[C@H](O)[C@@H]2O[C@H]2O[C@H](CO)[C@@H](O)[C@H](O)[C@@H]2O)nn1)C(=O)N[C@@H](CCCCn1cc(CO[C@H]2O[C@H](CO)[C@@H](O)[C@H](O)[C@@H]2O[C@H]2O[C@H](CO)[C@@H](O)[C@H](O)[C@@H]2O)nn1)C(=O)N[C@@H](CCCCn1cc(CO[C@H]2O[C@H](CO)[C@@H](O)[C@H](O)[C@@H]2O[C@H]2O[C@H](CO)[C@@H](O)[C@H](O)[C@@H]2O)nn1)C(=O)NCC(=O)N[C@@H](CCCCN)C(N)=O [B6] | 950 nM and 946 nM and 900 nM | internalization by moDCs (loss of surface streptavidin signal) (moDCs; 20 μM cluster, live moDCs): rapidly internalized; internalization by moDCs (pHrodo-avidin fluorescence increase) (moDCs; clusters pre-complexed with pH-sensitive dye): internalized rapidly; uptake by immature moDCs (moDCs; within 5 min at 37°C, 20 μM cluster): 50%
4 | CC(=O)N[C@@H](CCCCn1cc(CO[C@H]2O[C@H](CO[C@H]3O[C@H](CO)[C@@H](O)[C@H](O)[C@@H]3O)[C@@H](O)[C@H](O)[C@@H]2O)nn1)C(=O)NCC(=O)N[C@@H](CCCCn1cc(CO[C@H]2O[C@H](CO[C@H]3O[C@H](CO)[C@@H](O)[C@H](O)[C@@H]3O)[C@@H](O)[C@H](O)[C@@H]2O)nn1)C(=O)NCC(=O)N[C@@H](CCCCn1cc(CO[C@H]2O[C@H](CO[C@H]3O[C@H](CO)[C@@H](O)[C@H](O)[C@@H]3O)[C@@H](O)[C@H](O)[C@@H]2O)nn1)C(=O)NCC(=O)N[C@@H](CCCCN)C(N)=O [D3] | 48700 ± 2570 nM | 
5 | CC(=O)N[C@@H](CCCCn1cc(CO[C@H]2O[C@H](CO[C@H]3O[C@H](CO)[C@@H](O)[C@H](O)[C@@H]3O)[C@@H](O)[C@H](O[C@H]3O[C@H](CO)[C@@H](O)[C@H](O)[C@@H]3O)[C@@H]2O)nn1)C(=O)NCC(=O)N[C@@H](CCCCn1cc(CO[C@H]2O[C@H](CO[C@H]3O[C@H](CO)[C@@H](O)[C@H](O)[C@@H]3O)[C@@H](O)[C@H](O[C@H]3O[C@H](CO)[C@@H](O)[C@H](O)[C@@H]3O)[C@@H]2O)nn1)C(=O)NCC(=O)N[C@@H](CCCCn1cc(CO[C@H]2O[C@H](CO[C@H]3O[C@H](CO)[C@@H](O)[C@H](O)[C@@H]3O)[C@@H](O)[C@H](O[C@H]3O[C@H](CO)[C@@H](O)[C@H](O)[C@@H]3O)[C@@H]2O)nn1)C(=O)NCC(=O)N[C@@H](CCCCN)C(N)=O [E3] | 2440 nM | 
